Columns and labels:
tumor cells = test: Cellular uptake of ^99mTc-EC-G in tumor cells; type: cell-based
Description: (§1) To further validate EC-G biological activity, in vitro cell culture assays were performed. Briefly, the cellular uptake was determined in tumor cells (50,000 cells/well) incubated with ^99mTc-EC-G (2 μCi/well) at various time intervals. […] There was a 10-15% decrease in cellular uptake using ^99mTc-EC-G after 2-4 weeks. The useful life of EC-G in water appears to be 17.26 days.

[1] = In vitro stability of EC-G dissolved in water; type: physicochemical
Description: as §1

[2] = In vivo imaging studies of EC-G; settings: comparison of aqueous and organic synthesized EC-G
New Zealand white rabbit = test: PET imaging in a New Zealand white rabbit; type: in vivo; settings: PET coronal images 45 minutes after injection of 0.66 mCi
Description: The numbers are heart/upper mediastinum (H/UM) count density (count/pixel) ratios at 15-45 minutes. […] A rabbit was administered ^68Ga-EC-trimethyl lysine (EC-TML). PET coronal images were acquired at 45 minutes after injection of 0.66 mCi of ^68Ga-EC-TML (dorsal to ventral order).

human lymphoma cells = test: [^3H]Thymidine incorporation assay using Re-EC-G and a lymphoma cell line; type: cell-based; settings: in vitro cell culture, dose response curve (FIG. 3)

N,N′-ethylenedicysteine-glucosamine [EC-G]
in vitro uptake, aqueous versus organic synthesized EC-G (tumor cells; comparison of aqueous and organic synthesized EC-G): no marked difference | cellular uptake, raw (unpurified) EC-G versus prep-HPLC purified EC-G (tumor cells; tumor cells 50,000 cells/well, ^99mTc-EC-G 2 μCi/well, various time intervals (FIG. 4)): no marked difference | useful life of EC-G in water [1]: 17.26 days | in vivo imaging, EC-G from aqueous versus organic synthesis [2]: no marked difference

^68Ga-EC-trimethyl lysine [^68Ga-EC-TML]
uptake in the heart (New Zealand white rabbit): High uptake

rhenium-ethylenedicysteine-glucosamine [Re-EC-G]
activity against human lymphoma cells (human lymphoma cells): effective
